From patent publication US12139498B1, “Positive allosteric modulators of the muscarinic acetylcholine receptor M4” (Vanderbilt University, priority 2023, dated 2024)

Assays:
[1] = In vivo pharmacokinetics in dog
Method: (§1) Compound 70 was tested in several in vivo assays and the pharmacokinetic parameters listed in the following table may be determined from pharmacokinetic studies in rat, dog, or cynomolgus monkey, according to known methods as generally described in the following references: Garrison et al. J. Med. Chem. 2022, 65, 6273-6286; Felts et al. J. Med. Chem 2017, 60, 5072-5085; and Yu et al. J. Med. Chem. 2021, 64, 4709-4729.

P450 1A2 = biological target: T1, P450 1A2 (Homo sapiens, UniProt P05177); assay: P450 1A2 inhibition; type: in vitro ADME
T1 sequence (P05177 1-516): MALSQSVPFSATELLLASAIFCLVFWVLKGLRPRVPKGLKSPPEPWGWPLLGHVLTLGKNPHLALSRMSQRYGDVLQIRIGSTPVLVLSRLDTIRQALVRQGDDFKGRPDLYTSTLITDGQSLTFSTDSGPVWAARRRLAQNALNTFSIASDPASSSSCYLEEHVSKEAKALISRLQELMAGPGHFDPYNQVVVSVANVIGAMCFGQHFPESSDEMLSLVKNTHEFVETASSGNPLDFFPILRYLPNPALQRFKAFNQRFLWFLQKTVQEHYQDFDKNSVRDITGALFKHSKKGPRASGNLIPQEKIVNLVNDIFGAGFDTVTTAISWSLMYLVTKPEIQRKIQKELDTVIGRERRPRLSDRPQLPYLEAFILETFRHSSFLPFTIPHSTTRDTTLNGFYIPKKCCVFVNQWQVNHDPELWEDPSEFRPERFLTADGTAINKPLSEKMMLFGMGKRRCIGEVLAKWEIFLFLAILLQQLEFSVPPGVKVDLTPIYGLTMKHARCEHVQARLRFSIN
Method: (§2) Compound 70 was tested in several in in vitro assays to investigate both metabolism and pharmacokinetics. These assays may be performed according to known methods as generally described in the following references: Conde-Ceide et al. ACS Med. Chem. Lett. 2015, 6, 716-720; Morris et al. J. Med. Chem. 2014, 57, 10192-10197; and Bubser et al. ACS Chem. Neurosci. 2014, 5, 920-942.

[2] = Human intrinsic clearance; type: in vitro ADME
Method: as §2

[3] = Fraction unbound in rat brain; type: in vitro ADME; conditions: read-out: Rat Fu (brain)
Method: as §2

P450 3A4 = P450 3A4 (Homo sapiens, UniProt P08684); assay: P450 3A4 inhibition; type: in vitro ADME
P450 3A4, sequence (P08684 whole entry): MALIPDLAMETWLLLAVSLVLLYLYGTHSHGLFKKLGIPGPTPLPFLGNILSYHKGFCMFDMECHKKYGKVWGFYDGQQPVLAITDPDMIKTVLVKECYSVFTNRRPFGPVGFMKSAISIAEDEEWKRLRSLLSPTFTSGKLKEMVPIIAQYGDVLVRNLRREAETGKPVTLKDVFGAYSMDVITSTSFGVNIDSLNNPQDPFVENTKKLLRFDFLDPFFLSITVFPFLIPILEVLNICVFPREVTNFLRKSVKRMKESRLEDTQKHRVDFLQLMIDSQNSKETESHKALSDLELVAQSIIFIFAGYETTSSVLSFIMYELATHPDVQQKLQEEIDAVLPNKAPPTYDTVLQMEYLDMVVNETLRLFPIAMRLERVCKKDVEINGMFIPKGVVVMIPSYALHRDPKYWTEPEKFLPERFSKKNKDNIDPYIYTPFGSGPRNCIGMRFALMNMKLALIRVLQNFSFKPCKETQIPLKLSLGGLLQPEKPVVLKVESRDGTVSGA
Method: as §2

[4] = In vivo pharmacokinetics in cynomolgus monkey; conditions: plasma
Method: as §1

Dog intrinsic clearance = type: in vitro ADME
Method: as §2

Rat intrinsic clearance = type: in vitro ADME
Method: as §2

Cyno intrinsic clearance = type: in vitro ADME; conditions: cynomolgus monkey
Method: as §2

human muscarinic 2 = biological target: T2, human muscarinic 2 (Homo sapiens, UniProt P08172); assay: Eurofins LeadProfilingScreen, human muscarinic 2 (binding); conditions: 10 μM (binding)
T2 sequence (P08172 1-466): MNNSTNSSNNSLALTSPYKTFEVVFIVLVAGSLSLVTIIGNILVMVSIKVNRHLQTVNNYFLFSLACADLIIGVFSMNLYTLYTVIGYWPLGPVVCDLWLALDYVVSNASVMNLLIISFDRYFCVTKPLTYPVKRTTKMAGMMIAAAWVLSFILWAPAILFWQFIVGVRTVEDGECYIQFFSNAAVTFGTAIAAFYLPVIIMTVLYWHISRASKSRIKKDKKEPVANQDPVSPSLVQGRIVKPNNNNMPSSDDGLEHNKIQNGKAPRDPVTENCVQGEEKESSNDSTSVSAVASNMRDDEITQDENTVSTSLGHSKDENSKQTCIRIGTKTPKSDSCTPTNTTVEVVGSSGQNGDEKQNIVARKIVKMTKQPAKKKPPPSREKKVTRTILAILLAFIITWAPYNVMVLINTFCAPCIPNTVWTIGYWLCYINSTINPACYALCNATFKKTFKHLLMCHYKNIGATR
Method: Compound 70 was tested using Eurofins LeadProfilingScreen®, which detects potential off-target activity and determines relative selectivity. The screen includes 68 primary molecular targets, including several CNS targets recommended by the EMEA (European Medicines Evaluation Agency) to evaluate drug dependence potential.

[5] = Fraction unbound in human plasma; type: in vitro ADME; conditions: read-out: Human Fu (plasma)
Method: as §2

P450 2C9 = P450 2C9 (Homo sapiens, UniProt P11712); assay: P450 2C9 inhibition; type: in vitro ADME
P450 2C9, sequence (P11712 whole entry): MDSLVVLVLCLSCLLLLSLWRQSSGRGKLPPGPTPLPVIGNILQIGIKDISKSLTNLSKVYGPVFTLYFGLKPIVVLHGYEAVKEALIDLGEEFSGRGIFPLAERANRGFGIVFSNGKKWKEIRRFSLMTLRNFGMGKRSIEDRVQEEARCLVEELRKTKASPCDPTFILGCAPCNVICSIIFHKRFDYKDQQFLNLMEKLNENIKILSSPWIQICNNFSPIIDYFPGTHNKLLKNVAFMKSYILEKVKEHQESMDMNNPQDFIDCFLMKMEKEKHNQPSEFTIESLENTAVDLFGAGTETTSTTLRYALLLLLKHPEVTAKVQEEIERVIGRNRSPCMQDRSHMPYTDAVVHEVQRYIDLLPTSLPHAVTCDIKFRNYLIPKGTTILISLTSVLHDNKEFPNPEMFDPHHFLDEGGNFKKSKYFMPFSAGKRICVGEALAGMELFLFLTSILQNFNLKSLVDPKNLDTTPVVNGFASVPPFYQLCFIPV
Method: as §2

[6] = Fraction unbound in cyno plasma; type: in vitro ADME; conditions: cynomolgus monkey, read-out: Cyno Fu (plasma)
Method: as §2

## Cc1c(N2CCc3nc(C4(F)CC4)sc3C2)nc2nn(C)c(=O)n2c1C [Compound 70, 7-(2-(1-fluorocyclopropyl)-6,7-dihydrothiazolo[5,4-c]pyridin-5(4H)-yl)-2,5,6-trimethyl-[1,2,4]triazolo[4,3-a]pyrimidin-3(2H)-one]
[1]; oral 3 mg/kg
  Dog oral F (3 mg/kg): 83%
[1]; plasma, read-out: Dog CLp
  clearance: 24.4 mL/min/kg
[1]; plasma, read-out: Dog Elim. t1/2 (converted)
  half-life: 2.1 h
[1]; plasma, read-out: Dog Vss
  Vd: 3.1 L/kg
P450 1A2
  IC50: > 30 µM
[2]
  CLint scaled: 9 mL/min/kg
[3]
  fraction unbound: 0.06
P450 3A4
  IC50: > 30 µM
[4]; read-out: Cyno CLp
  clearance: 4.9 mL/min/kg
[4]; read-out: Cyno Elim. t1/2 (converted)
  half-life: 4.2 h
[4]; read-out: Cyno Vss
  Vd: 1.4 L/kg
Dog intrinsic clearance
  CLint scaled: 17 mL/min/kg
Rat intrinsic clearance
  CLint scaled: 36 mL/min/kg
Cyno intrinsic clearance
  CLint scaled: 24 mL/min/kg
Human muscarinic 2
  inhibition at 10 µM: 58%
[5]
  fraction unbound: 0.217
P450 2C9
  IC50: > 30 µM
[6]
  fraction unbound: 0.177
